Assay results: patent US10143681B2, “Factor XIa inhibitors” (MERCK SHARP & DOHME CORP., priority 2016, dated 2018)

biological target: human Factor XIa (Homo sapiens (Human), UniProt P03951); assay: Factor XIa Assay; assay type: biochemical; conditions: @ 1000 nM compound
Experimental: The effectiveness of a compound of the present invention as an inhibitor of Coagulation Factor XIa can be determined using a relevant purified serine protease, and an appropriate synthetic substrate. The rate of hydrolysis of the chromogenic or fluorogenic substrate by the relevant serine protease was measured both in the absence and presence of compounds of the present invention. Assays were conducted at room temperature or at 37° C. […] A decrease in the rate of fluorescence change in the presence of inhibitor is indicative of enzyme inhibition. Such methods are known to one skilled in the art. The results of this assay are expressed as the half-maximal inhibitory concentrations (IC50), or the inhibitory constant, Ki.
Compounds were pre-incubated for 30 minutes at 25° C. with human (0.04 nM) Factor XIa in 50 mM HEPES buffer with 150 mM sodium chloride, 5 mM calcium chloride, 0.1% PEG 8000, pH 7.4. Factor XIa enzymatic activity was determined by addition of the substrate glycine-proline-arginine-7-amido-4-trifluoromethylcoumarin (GPR-AFC) and measurement of the fluorescence at 400/505 nm after a 60 minute incubation at 25° C. The % inhibition for each data point was calculated from the data and analyzed using the log (inhibitor) vs. response four parameters equation to determine the half-maximal inhibitory concentrations (IC50). The IC50 were converted to equilibrium inhibitory constants (Ki) using the Cheng-Prusoff equation.

Sequence of human Factor XIa (P03951 388-625): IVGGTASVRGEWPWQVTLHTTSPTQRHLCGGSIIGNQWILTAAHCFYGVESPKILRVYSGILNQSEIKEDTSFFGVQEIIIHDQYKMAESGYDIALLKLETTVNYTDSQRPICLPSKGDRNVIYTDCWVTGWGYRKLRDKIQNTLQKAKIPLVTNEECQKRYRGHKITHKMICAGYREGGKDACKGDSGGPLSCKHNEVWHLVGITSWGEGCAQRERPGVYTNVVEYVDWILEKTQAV
Sequence of human Factor XIa (P03951 19-387 partner): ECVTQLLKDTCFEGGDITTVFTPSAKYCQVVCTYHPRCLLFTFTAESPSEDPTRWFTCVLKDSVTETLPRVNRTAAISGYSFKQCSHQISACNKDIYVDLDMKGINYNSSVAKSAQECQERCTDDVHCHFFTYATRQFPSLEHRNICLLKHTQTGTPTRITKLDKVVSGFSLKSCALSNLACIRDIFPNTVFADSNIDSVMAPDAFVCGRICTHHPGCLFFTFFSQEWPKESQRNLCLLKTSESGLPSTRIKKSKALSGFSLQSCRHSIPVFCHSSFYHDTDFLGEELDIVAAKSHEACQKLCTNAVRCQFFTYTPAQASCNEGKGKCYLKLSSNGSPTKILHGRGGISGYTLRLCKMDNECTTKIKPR

FXIa % Inh. @ 1000 nM [%]	Compound
6	COC(=O)c1ccc(NC(=O)C(CC2CC2)c2ccc(-c3c(C(F)F)ccc(Cl)c3F)c[n+]2[O-])cc1 (single isomer, unassigned) [Example 113, 5-(3-chloro-6-(difluoromethyl)-2-fluorophenyl)-2-(3-cyclopropyl-1-((4-(methoxycarbonyl)phenyl)amino)-1-oxopropan-2-yl)pyridine 1-oxide]

same assay, conditions: @ 1000 nM compound; read-out: FXIa % Inh. @ 1000 nM

inhibition at 1 µM [%]	Compound
44	O=C(O)c1ccc(NC(=O)C(CC2CC(F)C2)c2ccc(-c3c(OC(F)F)ccc(Cl)c3F)c[n+]2[O-])cc1 (single isomer, unassigned) [Example 101, 2-(1-((4-carboxyphenyl)amino)-3-(3-fluorocyclobutyl)-1-oxopropan-2-yl)-5-(3-chloro-6-(difluoromethoxy)-2-fluorophenyl)pyridine 1-oxide]
37	CC1CCC1CC(C(=O)Nc1ccc(C(=O)O)cc1)c1ccc(-c2c(OC(F)F)ccc(Cl)c2F)c[n+]1[O-] (single isomer, unassigned) [Example 104, 2-(1-((4-carboxyphenyl)amino)-3-(2-methylcyclobutyl)-1-oxopropan-2-yl)-5-(3-chloro-6-(difluoromethoxy)-2-fluorophenyl)pyridine 1-oxide]
29	O=C(O)c1ccc(NC(=O)C(CC2CC2C(F)(F)F)c2ccc(-c3c(OC(F)F)ccc(Cl)c3F)c[n+]2[O-])cc1 (single isomer, unassigned) [Example 110, 2-(1-((4-carboxyphenyl)amino)-1-oxo-3-(2-(trifluoromethyl)cyclopropyl)propan-2-yl)-5-(3-chloro-6-(difluoromethoxy)-2-fluorophenyl)pyridine 1-oxide]
0	CCOC(=O)c1ccc(NC(=O)C(CC2CC2)c2ccc(-c3c(C(F)F)ccc(Cl)c3F)c[n+]2[O-])cc1 (single isomer, unassigned) [Example 115, 5-(3-chloro-6-(difluoromethyl)-2-fluorophenyl)-2-(3-cyclopropyl-1-((4-(ethoxycarbonyl)phenyl)amino)-1-oxopropan-2-yl)pyridine 1-oxide]
35	O=C(O)c1ccc(NC(=O)[C@@H](CC2CC2)c2ccc(-c3c(OCC4CC4)ccc(Cl)c3F)c[n+]2[O-])cc1 [Example 12, (S)-4-[(2-{5-[3-chloro-6-(cyclopropylmethoxy)-2-fluorophenyl]-1-oxidopyridin-2-yl}-3-cyclopropylpropanoyl)amino] benzoic acid]
34	Cc1cc(C(CC2CC2)C(=O)Nc2ccc(C(=O)O)cc2)[n+]([O-])cc1-c1c(OC(F)F)ccc(Cl)c1F [Example 66, (S)- and (R)-2-(1-((4-carboxyphenyl)amino)-3-cyclopropyl-1-oxopropan-2-yl)-5-(3-chloro-6-(difluoromethoxy)-2-fluorophenyl)-4-methylpyridine 1-oxide]

same assay, conditions: human Factor XIa 0.04 nM, 30 min pre-incubation at 25° C., substrate GPR-AFC; read-out: FXIa IC50

Compound	IC50 [µM]
COC(=O)c1ccc(NC(=O)C(CC2CC2)c2ccc(-c3c(C(F)F)ccc(Cl)c3F)c[n+]2[O-])cc1 (single isomer, unassigned) [Example 113, 5-(3-chloro-6-(difluoromethyl)-2-fluorophenyl)-2-(3-cyclopropyl-1-((4-(methoxycarbonyl)phenyl)amino)-1-oxopropan-2-yl)pyridine 1-oxide]	1
O=C(O)c1ccc(NC(=O)C(CC2CC2)c2ccc(-c3c(C(F)F)ccc(Cl)c3F)c[n+]2[O-])cc1F (single isomer, unassigned) [Example 117, 2-(1-((4-carboxy-3-fluorophenyl)amino)-3-cyclopropyl-1-oxopropan-2-yl)-5-(3-chloro-6-(difluoromethyl)-2-fluorophenyl)pyridine 1-oxide]	0.0584
O=C(O)c1ccc(NC(=O)C(CC23CC(C2)C3)c2ccc(-c3c(C(F)F)ccc(Cl)c3F)c[n+]2[O-])cc1F (single isomer, unassigned) [Example 123, 2-(3-(bicyclo[1.1.1]pentan-1-yl)-1-((4-carboxy-3-fluorophenyl)amino)-1-oxopropan-2-yl)-5-(3-chloro-6-(difluoromethyl)-2-fluorophenyl)pyridine 1-oxide]	0.0247
CCOC(=O)c1ccc(NC(=O)[C@H](CC2CCC2)c2ccc(-c3c(C(F)F)ccc(Cl)c3F)c[n+]2[O-])cc1 [Example 5, (R)-5-(3-chloro-6-(difluoromethyl)-2-fluorophenyl)-2-(3-cyclobutyl-1-((4-(ethoxycarbonyl)phenyl)amino)-1-oxopropan-2-yl)pyridine 1-oxide]	0.166

Next, values leading:

IC50 [µM]	Compound
0.153	CC1CCC1CC(C(=O)Nc1ccc(C(=O)O)cc1)c1ccc(-c2c(OC(F)F)ccc(Cl)c2F)c[n+]1[O-] (single isomer, unassigned) [Example 103, 2-(1-((4-carboxyphenyl)amino)-3-(2-methylcyclobutyl)-1-oxopropan-2-yl)-5-(3-chloro-6-(difluoromethoxy)-2-fluorophenyl)pyridine 1-oxide]
1	CC1CCC1CC(C(=O)Nc1ccc(C(=O)O)cc1)c1ccc(-c2c(OC(F)F)ccc(Cl)c2F)c[n+]1[O-] (single isomer, unassigned) [Example 104, 2-(1-((4-carboxyphenyl)amino)-3-(2-methylcyclobutyl)-1-oxopropan-2-yl)-5-(3-chloro-6-(difluoromethoxy)-2-fluorophenyl)pyridine 1-oxide]
0.00379	CC1CCC1CC(C(=O)Nc1ccc(C(=O)O)cc1)c1ccc(-c2c(OC(F)F)ccc(Cl)c2F)c[n+]1[O-] (single isomer, unassigned) [Example 106, 2-(1-((4-carboxyphenyl)amino)-3-(2-methylcyclobutyl)-1-oxopropan-2-yl)-5-(3-chloro-6-(difluoromethoxy)-2-fluorophenyl)pyridine 1-oxide]
0.157	CC1(C)CC1CC(C(=O)Nc1ccc(C(=O)O)cc1)c1ccc(-c2c(OC(F)F)ccc(Cl)c2F)c[n+]1[O-] (single isomer, unassigned) [Example 111, 2-(1-((4-carboxyphenyl)amino)-3-(2,2-dimethylcyclopropyl)-1-oxopropan-2-yl)-5-(3-chloro-6-(difluoromethoxy)-2-fluorophenyl)pyridine 1-oxide]
0.62	Cc1cc(NC(=O)C(CC2CC2)c2ccc(-c3c(C(F)F)ccc(Cl)c3F)c[n+]2[O-])ccc1C(=O)O (single isomer, unassigned) [Example 121, 2-(1-((4-carboxy-3-methylphenyl)amino)-3-cyclopropyl-1-oxopropan-2-yl)-5-(3-chloro-6-(difluoromethyl)-2-fluorophenyl)pyridine 1-oxide]
> 1	O=C(O)c1ccc(NC(=O)[C@@H](CC2CC2)c2ccc(-c3c(OCC4CC4)ccc(Cl)c3F)c[n+]2[O-])cc1 [Example 12, (S)-4-[(2-{5-[3-chloro-6-(cyclopropylmethoxy)-2-fluorophenyl]-1-oxidopyridin-2-yl}-3-cyclopropylpropanoyl)amino] benzoic acid]
> 1	Cc1cc(C(CC2CC2)C(=O)Nc2ccc(C(=O)O)cc2)[n+]([O-])cc1-c1c(OC(F)F)ccc(Cl)c1F [Example 66, (S)- and (R)-2-(1-((4-carboxyphenyl)amino)-3-cyclopropyl-1-oxopropan-2-yl)-5-(3-chloro-6-(difluoromethoxy)-2-fluorophenyl)-4-methylpyridine 1-oxide]
0.011	Cc1cc(C(CC2CC2)C(=O)Nc2ccc(C(=O)O)cc2)[n+]([O-])cc1-c1c(OC(F)F)ccc(Cl)c1F [Example 67, (S)- and (R)-2-(1-((4-carboxyphenyl)amino)-3-cyclopropyl-1-oxopropan-2-yl)-5-(3-chloro-6-(difluoromethoxy)-2-fluorophenyl)-4-methylpyridine 1-oxide]

tested on: Human plasma (intrinsic coagulation cascade); assay: Activated Partial Thromboplastin Time (aPTT) Assay; conditions: concentration that causes a 50% (1.5×) increase of clot time over vehicle
Experimental: Activated partial thromboplastin time (aPTT) is a clotting test that measures the intrinsic coagulation cascade. The test is performed in sodium citrated plasma. Human plasma is made by collecting blood from healthy donors of both genders into Na citrate tubes (Sarstedt coagulation 9NC/10 ml). Blood is centrifuged at 1500×g and the plasma is collected. aPTT is checked on each individual donor and those within the normal range (28-40 seconds) are pooled, aliquoted, and stored at −80 C. Test samples are prepared by spiking inhibitors or vehicle into plasma. These spiked samples are then run on a coagulation analyzer (STA-R Evolution, Stago Diagnostica). In general, the analyzer performs the following steps: Factor XII is activated by addition of ellagic acid (Pacific Hemostasis), and then time to clot is measured after re-calcification of the sample. Inhibition of FXI will cause aPTT clot time to be prolonged. The data is expressed as percent increase over vehicle control clot time and the concentration that causes a 50% (1.5×) percent increase of clot time are reported.

Compound	aPTT (1.5x) [µM]
O=C(O)c1ccc(NC(=O)[C@@H](CC2CCC2)c2ccc(-c3c(C(F)F)ccc(Cl)c3F)c[n+]2[O-])cc1 (mixture of isomers) [Example 4, (S)- and (R)-2-(1-((4-Carboxyphenyl)amino)-3-cyclobutyl-1-oxopropan-2-yl)-5-(3-chloro-6-(difluoromethyl)-2-fluorophenyl)pyridine 1-oxide]	0.55
O=C(O)c1ccc(NC(=O)[C@@H](CC2CC2)c2ccc(-c3c(C(F)F)ccc(Cl)c3F)c[n+]2[O-])cc1 (mixture of isomers) [Example 23, (S)- and (R)-2-(1-((4-carboxyphenyl)amino)-3-cyclopropyl-1-oxopropan-2-yl)-5-(3-chloro-6-(difluoromethyl)-2-fluorophenyl)pyridine 1-oxide]	0.61
CC1(O)CC(CC(C(=O)Nc2ccc(C(=O)O)cc2)c2ccc(-c3c(C(F)F)ccc(Cl)c3F)c[n+]2[O-])C1 (single isomer, unassigned) [Example 83, 2-(1-((4-carboxyphenyl)amino)-3-(3-hydroxy-3-methylcyclobutyl)-1-oxopropan-2-yl)-5-(3-chloro-6-(difluoromethyl)-2-fluorophenyl)pyridine 1-oxide]	0.62
CC1(O)CC(CC(C(=O)Nc2ccc(C(=O)O)cc2)c2ccc(-c3c(C(F)F)ccc(Cl)c3F)c[n+]2[O-])C1 (single isomer, unassigned) [Example 85, 2-(1-((4-carboxyphenyl)amino)-3-(3-hydroxy-3-methylcyclobutyl)-1-oxopropan-2-yl)-5-(3-chloro-6-(difluoromethyl)-2-fluorophenyl)pyridine 1-oxide]	1
O=C(O)c1ccc(NC(=O)C(CC2CC2F)c2ccc(-c3c(C(F)F)ccc(Cl)c3F)c[n+]2[O-])cc1 (single isomer, unassigned) [Example 92, 2-(1-((4-carboxyphenyl)amino)-3-(2-fluorocyclopropyl)-1-oxopropan-2-yl)-5-(3-chloro-6-(difluoromethyl)-2-fluorophenyl)pyridine 1-oxide]	100
